# Earlier results as cited in US20050215536A1, “Sequential SPRM/ progestin treatment” (priority 2004, published 2005).
# What was measured:
# [1] = premenopausal women
# [2] = biological target: T1, progesterone receptor (Oryctolagus cuniculus, UniProt P06186); details: for McPhail score: rabbit model, scale of 0-4; for agonist activity in the McPhail bioassay: rabbits
# T1 construct: SPRMs score lower than progesterone in the McPhail bioassay in rabbits; from tissue; host or cells: live rabbit
# T1 sequence (P06186 1-930): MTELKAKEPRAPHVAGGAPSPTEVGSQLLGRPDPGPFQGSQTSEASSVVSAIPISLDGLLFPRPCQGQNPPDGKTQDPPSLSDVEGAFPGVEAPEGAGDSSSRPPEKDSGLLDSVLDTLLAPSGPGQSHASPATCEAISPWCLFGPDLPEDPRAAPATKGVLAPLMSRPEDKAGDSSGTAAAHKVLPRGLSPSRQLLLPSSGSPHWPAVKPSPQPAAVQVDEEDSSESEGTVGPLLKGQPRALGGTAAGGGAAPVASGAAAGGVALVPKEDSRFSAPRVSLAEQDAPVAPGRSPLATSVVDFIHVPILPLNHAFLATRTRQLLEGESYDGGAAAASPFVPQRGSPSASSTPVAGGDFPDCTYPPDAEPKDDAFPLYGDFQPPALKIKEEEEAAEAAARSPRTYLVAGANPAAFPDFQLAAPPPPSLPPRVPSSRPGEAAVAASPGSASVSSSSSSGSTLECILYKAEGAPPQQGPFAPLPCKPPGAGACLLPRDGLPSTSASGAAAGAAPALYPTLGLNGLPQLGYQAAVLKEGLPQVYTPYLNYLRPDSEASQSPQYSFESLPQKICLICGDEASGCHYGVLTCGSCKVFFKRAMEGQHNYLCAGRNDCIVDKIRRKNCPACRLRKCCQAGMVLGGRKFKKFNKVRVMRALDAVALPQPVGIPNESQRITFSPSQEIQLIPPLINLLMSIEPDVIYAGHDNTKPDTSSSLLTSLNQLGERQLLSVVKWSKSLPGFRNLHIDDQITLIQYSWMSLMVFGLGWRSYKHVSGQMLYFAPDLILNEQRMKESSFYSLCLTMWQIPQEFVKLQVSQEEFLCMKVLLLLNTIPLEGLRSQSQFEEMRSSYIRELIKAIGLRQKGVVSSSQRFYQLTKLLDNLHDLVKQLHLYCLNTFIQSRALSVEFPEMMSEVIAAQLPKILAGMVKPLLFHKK
McPhail score [2],agonist activity in the McPhail bioassay [2],SMILES,"withdrawal bleeding (start of spontaneous menstrual cycle), time after stopping the SPRM treatment ([1]; all subjects, latest occurrence)","resumption of menstruation, time after cessation of treatment ([1]; majority of subjects) [days]"
,,"COC[C@]1(OC)CC[C@H]2[C@@H]3CCC4=CC(=O)CCC4=C3[C@@H](c3ccc(/C=N/O)cc3)C[C@@]21C [J867, 4-[17β-Methoxy-17α-(methoxymethyl)-3-oxoestra-4,9-dien-11β-yl]benzaldehyd-(1E)-oxim]",up to 90 days,≤ 30
less than 0.5,do not show any agonist activity,"CC#C[C@]1(O)CC[C@H]2[C@@H]3CCC4=CC(=O)CCC4=C3[C@@H](c3ccc(N(C)C)cc3)C[C@@]21C [RU486, mifepristone]",,
,do not show any agonist activity,CN(C)c1ccc([C@H]2C[C@]3(C)[C@@H](CC[C@]3(O)CCCO)[C@@H]3CCC4=CC(=O)CCC4=C32)cc1 [onapristone],,
4,,CC(=O)[C@H]1CC[C@H]2[C@@H]3CCC4=CC(=O)CC[C@]4(C)[C@H]3CC[C@]12C [progesterone],,
